Each structure is given as a SMILES string. In brackets after ≈: the same amount, converted by molar mass.

In ChEMBL document CHEMBL3046162, “Design, synthesis and evaluation of aminobenzophenone derivatives containing nitrogen mustard moiety as potential central nervous system antitumor agent” (Med Chem Res, 2013) one finds IC50 and t1/2 data, which are given here for eight compounds.

One series deals with COLO 205. In words: Cytotoxicity against human COLO205 cells after 72 hrs by MTT assay. In kind it is functional, cell-based. Particulars: COLO 205, 72 h. Background: Formazan colour is commonly taken as a measure of viable cells.
Series [1] is described as follows: Cytotoxicity against human U87 cells after 72 hrs by MTT assay. The following applies: U-87 MG. In kind it is functional, cell-based, U-87MG ATCC.
For the next series, the system named is A549. In words: Cytotoxicity against human A549 cells after 72 hrs by MTT assay. In kind it is functional, cell-based. Particulars: A549, 72 h.
Series [2] is described as follows: Alkylating activity of the compound in aqueous acetone solution assessed as half life of compound-NBP adduct formation after 30 mins by UV-Vis spectrophotometric analysis. In kind it is physicochemical. The following applies: buffer, 0.5 h.
The next series has as its system IMR-32. In words: Cytotoxicity against human IMR32 cells after 72 hrs by MTT assay. The series is classed as functional, cell-based. Particulars: IMR-32, 72 h.

Turning to `O=C(CN(CCCl)CCCl)Nc1ccc(Cl)cc1C(=O)c1ccccc1`, the IC50 came out at 52.3 µg/mL (≈ 126 µM) with COLO 205, 29 µg/mL (≈ 70.1 µM) in series [1], 37.1 µg/mL (≈ 89.7 µM) with A549 and 29.4 µg/mL (≈ 71 µM) in the series with IMR-32. In addition, the t1/2 in series [2] is listed as 13.3 min.
For `O=C(CN(CCCl)CCCl)Nc1ccc(Cl)cc1C(=O)c1ccccc1Cl` the same measures were 32.6 µg/mL (≈ 72.7 µM), 24.5 µg/mL (≈ 54.7 µM), 34.6 µg/mL (≈ 77.3 µM), 30.8 µg/mL (≈ 68.8 µM) and 10.3 min.
In the case of `O=C(CN(CCCl)CCCl)Nc1ccc(Cl)cc1C(=O)c1ccc(Cl)cc1`, the IC50 in the series on COLO 205 came to 28.7 µg/mL (≈ 64 µM); in series [1], 27.1 µg/mL (≈ 60.5 µM); in the series with A549 it was 37.3 µg/mL (≈ 83.3 µM); in the series on IMR-32 it was 31.1 µg/mL (≈ 69.5 µM). The t1/2 in series [2] came out at 8.9 min.
Taken in the same sequence, the figures for `O=C(CN(CCCl)CCCl)Nc1ccc([N+](=O)[O-])cc1C(=O)c1ccccc1` were 32.9 µg/mL (≈ 77.5 µM), 29.5 µg/mL (≈ 69.4 µM), 64.8 µg/mL (≈ 153 µM), 33.2 µg/mL (≈ 78.2 µM) and 11.8 min.
Taken in the same sequence, the figures for `O=C(CN(CCCl)CCCl)Nc1ccc([N+](=O)[O-])cc1C(=O)c1ccccc1Cl` were 33.4 µg/mL (≈ 72.8 µM), 43.7 µg/mL (≈ 95.4 µM), 64.8 µg/mL (≈ 141 µM), 31.4 µg/mL (≈ 68.4 µM) and 9.5 min.
For `O=C(CN(CCCl)CCCl)Nc1ccc([N+](=O)[O-])cc1C(=O)c1ccc(Cl)cc1` the same measures were 38.9 µg/mL (≈ 84.9 µM), 23.3 µg/mL (≈ 50.7 µM), 36.7 µg/mL (≈ 79.9 µM), 28.4 µg/mL (≈ 61.9 µM) and 8.4 min.
As to `O=C(O)CCCc1ccc(N(CCCl)CCCl)cc1` [CHLORAMBUCIL], the IC50 in the series with COLO 205 is 26.7 µg/mL (≈ 87.7 µM); in series [1], 18.8 µg/mL (≈ 61.9 µM); with A549 it was 21.1 µg/mL (≈ 69.3 µM); in the series on IMR-32, 20.1 µg/mL (≈ 66 µM).
Taken in the same sequence, the figures for `CC(=O)O[C@@]12CO[C@@H]1C[C@H](O)[C@@]1(C)C(=O)[C@H](O)C3=C(C)[C@@H](OC(=O)[C@H](O)[C@@H](NC(=O)OC(C)(C)C)c4ccccc4)C[C@@](O)([C@@H](OC(=O)c4ccccc4)[C@H]21)C3(C)C.O.O.O` [DOCETAXEL] were 30.7 µg/mL, 20.7 µg/mL, 27.3 µg/mL and 23.7 µg/mL.

As usually defined, the IC50 is the midpoint of a concentration-inhibition curve.
